IC50 data for 25 molecules are collected here from patent publication US7880002B2, “Substituted piperazinyl-pyrrolidine compounds useful as chemokine receptor antagonists” (Millennium Pharmaceuticals, Inc., priority 2004, dated 2011).

The target of the experiment is T1, CCR1 (Homo sapiens, UniProt P32246).
T1 construct: a monocytic derived cell line that endogenously expresses CCR1; host or cells: THP-1 cells
T1 sequence (P32246 1-355): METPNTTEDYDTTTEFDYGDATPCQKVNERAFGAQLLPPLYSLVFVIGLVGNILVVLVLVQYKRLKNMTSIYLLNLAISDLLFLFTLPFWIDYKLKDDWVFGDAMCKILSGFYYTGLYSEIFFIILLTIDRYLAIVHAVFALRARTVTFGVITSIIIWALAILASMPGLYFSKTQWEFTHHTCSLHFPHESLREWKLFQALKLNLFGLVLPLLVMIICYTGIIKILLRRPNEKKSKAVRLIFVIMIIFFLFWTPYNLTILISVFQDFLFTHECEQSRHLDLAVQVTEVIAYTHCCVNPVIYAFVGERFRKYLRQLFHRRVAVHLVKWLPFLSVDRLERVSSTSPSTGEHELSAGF
The experiment is described as follows: CCR1 inhibition (THP-1 FLIPR assay / THP-1 whole cell radioligand binding assay; the patent does not say which gave the values). The note with it: threshold list, less than 100 nm; compounds of Table 1; read-out: inhibitory activity. In kind it is cell-based. The method, then:
The primary screening assay is a FLIPR® (Fluorometric Imaging Plate Reader, available from Molecular Devices Corporation, Sunnyvale, Calif.) assay using THP-1 cells (ATCC, Catalog No. TIB 202), a monocytic derived cell line that endogenously expresses CCR1.
The cells were resuspended at 1×10^6 cells/ml in dye loading media (growth media (RPMI+10% FBS (Fetal Bovine serum)+5.5×10^−5M 2-mercaptoethanol)+10 mM HEPES (N-2-hydroxyethylpiperazine-N′-2-ethane-sulfonic acid)+2.5 mM probenecid+fluo-3 (1:250)). The cells were incubated for 1 hour at 37° C. and then washed in FLIPR wash buffer (100 mL 10× HBSS (Hanks Buffered Saline Solution) (w/Ca++/Mg++)+20 mL 1M HEPES+1 g BSA+10 mL 250 mM probenecid+water (to make 1 L)) and plated at 50,000 cells/well in black/clear 384 well plates. The plates were transferred to FLIPR where the ability of different concentrations of compounds to inhibit RANTES induced calcium flux was assessed. Inhibition of the CCR1 response was reflected by a decrease of the fluorescence signal relative to the positive controls (RANTES alone).
THP-1 Whole Cell Radioligand Binding Assay
The cells were washed with PBS (phosphate buffered saline) and resuspended in binding buffer (10 mM HEPES pH 7.2, 1× HBSS (w/Ca^2+, Mg^2+) 0.5% BSA, 0.02% Na-azide) at 4×10^6 cells/ml (for 200, 000 cells/well). Cells were incubated with 0.1 to 0.2 nM [^125I]-labeled MIP-1α with or without unlabeled competitor (MIP-1α) or various concentrations of compounds for 60 minutes at room temperature. The assay was terminated by vacuum filtration through glass fiber filters (GF/B, Packard) which were presoaked in 0.3% polyethyleneimine. The filters were washed with wash buffer (10 mM HEPES, pH 7.2, 1 mM CaCl2, 5 mM MgCl2 0.5M NaCl), dried and the amount of bound radioactivity was determined by scintillation counting.

As for `O[C@H]1CN(c2ncnc3cc(Cl)ccc23)C[C@@H]1N1CCC(Oc2ccc(Cl)cc2)CC1` (stereo in doubt) [Example 80, 4-[4-(4-chlorophenoxy)piperidin-1-yl]-1-(7-chloroquinazolin-4-yl)pyrrolidin-3-ol], the IC50 is below 100 nM.

For the molecule `O=C(c1ccc(Cl)cc1)N1CCN([C@@H]2CN(c3nccc(C(F)(F)F)n3)C[C@H]2O)CC1` (stereo in doubt) [Example 3, 4-[4-(4-chlorobenzoyl)piperazin-1-yl]-1-[4-(trifluoromethyl)pyrimidin-2-yl]pyrrolidin-3-ol], the IC50 was below 100 nM.

Take `O[C@@H]1CN(c2ccnc3cc(Cl)ccc23)C[C@H]1N1CCN(Cc2ccc(Cl)cc2)CC1` [Example 61, (3R,4R)-4-[4-(4-chlorobenzyl)piperazin-1-yl]-1-(7-chloroquinolin-4-yl)pyrrolidin-3-ol]: the IC50 was below 100 nM. For `O=C(c1ccc(Cl)cc1)N1CCN([C@@H]2CN(c3ncnc4cc(F)ccc34)C[C@H]2O)CC1` (stereo in doubt) [Example 86, 4-[4-(4-chlorobenzoyl)piperazin-1-yl]-1-(7-fluoroquinazolin-4-yl)pyrrolidin-3-ol], the IC50 is below 100 nM. Then `O=C(c1ccc(Cl)cc1)N1CCN([C@@H]2CN(c3ncnc4cc(Cl)cnc34)C[C@H]2O)CC1` (racemic) [Example 162, 4-[4-(4-chlorobenzoyl)piperazin-1-yl]-1-(7-chloropyrido[3,2-d]pyrimidin-4-yl)pyrrolidin-3-ol], with below 100 nM; and `O=C(c1ccc(Cl)cc1)N1CCN([C@@H]2CN(c3ncnc4cc(Cl)ccc34)C[C@H]2O)CC1` (stereo in doubt) [Example 23, 4-[4-(4-chlorobenzoyl)piperazin-1-yl]-1-(7-chloroquinazolin-4-yl)pyrrolidin-3-ol], with below 100 nM. Then `O=C(c1ccc(Cl)cc1)N1CCN([C@@H]2CN(c3nc(C(F)(F)F)nc4cc(C(F)(F)F)ccc34)C[C@H]2O)CC1` (stereo in doubt) [Example 111, 1-[2,7-bis(trifluoromethyl)quinazolin-4-yl]-4-[4-(4-chlorobenzoyl)piperazin-1-yl]pyrrolidin-3-ol], with below 100 nM. For the molecule `Nc1ccc2nc(C(F)(F)F)nc(N3C[C@H](O)[C@@H](N4CCN(C(=O)c5ccc(Cl)cc5)CC4)C3)c2c1` (stereo in doubt) [Example 186, 1-[6-amino-2-(trifluoromethyl)quinazolin-4-yl]-4-[4-(4-chlorobenzoyl)piperazin-1-yl]pyrrolidin-3-ol], the IC50 is below 100 nM. For the molecule `Cc1ccc2nc(C(F)(F)F)nc(N3C[C@H](O)[C@@H](N4CCN(C(=O)c5ccc(Cl)cc5)CC4)C3)c2c1` (stereo in doubt) [Example 174, 4-[4-(4-chlorobenzoyl)piperazin-1-yl]-1-[6-methyl-2-(trifluoromethyl)quinazolin-4-yl]pyrrolidin-3-ol], the IC50 is below 100 nM. `O=C(c1ccc(Cl)cc1)N1CCN([C@H]2CN(c3ccc4cccc(Cl)c4n3)C[C@@H]2O)CC1` (stereo in doubt) [Example 85, 4-[4-(4-chlorobenzoyl)piperazin-1-yl]-1-(8-chloroquinolin-2-yl)pyrrolidin-3-ol]: the IC50 was below 100 nM. Take `NC(=O)Nc1ccc2nc(C(F)(F)F)nc(N3C[C@H](O)[C@@H](N4CCN(C(=O)c5ccc(Cl)cc5)CC4)C3)c2c1` (stereo in doubt) [Example 194, N-[4-{3-[4-(4-chlorobenzoyl)piperazin-1-yl]-4-hydroxypyrrolidin-1-yl}-2-(trifluoromethyl)quinazolin-6-yl]urea]: the IC50 is below 100 nM.

Consider `O[C@@H]1CN(c2ncnc3cc(Cl)ccc23)C[C@H]1N1CCN(Cc2ccc(F)cc2)CC1` (stereo in doubt) [Example 115, 1-(7-chloroquinazolin-4-yl)-4-[4-(4-fluorobenzyl)piperazin-1-yl]pyrrolidin-3-ol], for which the IC50 is below 100 nM. Next, `Cc1nc(C(F)(F)F)nc(N2C[C@@H](O)[C@H](N3CCN(C(=O)c4ccc(Cl)cc4)CC3)C2)c1C` (stereo in doubt) [Example 119, 4-[4-(4-chlorobenzoyl)piperazin-1-yl]-1-[5,6-dimethyl-2-(trifluoromethyl)pyrimidin-4-yl]pyrrolidin-3-ol]: below 100 nM; `Cc1nc2ccccc2nc1N1C[C@H](O)[C@@H](N2CCN(C(=O)c3ccc(Cl)cc3)CC2)C1` (stereo in doubt) [Example 125, 4-[4-(4-chlorobenzoyl)piperazin-1-yl]-1-(3-methylquinoxalin-2-yl)pyrrolidin-3-ol]: below 100 nM; `O[C@@H]1CN(c2ncnc3cc(Cl)ccc23)C[C@H]1N1CCN(Cc2ccc(Cl)cc2)CC1` [Example 141, (3R,4R)-4-[4-(4-chlorobenzyl)piperazin-1-yl]-1-(7-chloroquinazolin-4-yl)pyrrolidin-3-ol]: below 100 nM. Consider `Cc1cc(C(F)(F)F)nc(N2C[C@@H](O)[C@H](N3CCN(C(=O)c4ccc(Cl)cc4)CC3)C2)n1` (stereo in doubt) [Example 107, 4-[4-(4-chlorobenzoyl)piperazin-1-yl]-1-[4-methyl-6-(trifluoromethyl)pyrimidin-2-yl]pyrrolidin-3-ol], for which the IC50 was below 100 nM.

For `O=C(c1ccc(Cl)cc1)N1CCN([C@H]2CN(c3nc(C(F)(F)F)nc4cccc(F)c34)C[C@@H]2O)CC1` (stereo in doubt) [Example 172, 4-[4-(4-chlorobenzoyl)piperazin-1-yl]-1-[5-fluoro-2-(trifluoromethyl)quinazolin-4-yl]pyrrolidin-3-ol], the IC50 was below 100 nM. Turning to `COc1cc2c(N3C[C@H](O)[C@@H](N4CCN(C(=O)c5ccc(Cl)cc5)CC4)C3)nc(C(F)(F)F)nc2cn1` (racemic) [Example 183, 4-[4-(4-chlorobenzoyl)piperazin-1-yl]-1-[6-methoxy-2-(trifluoromethyl)pyrido[3,4-d]pyrimidin-4-yl]pyrrolidin-3-ol], the IC50 is below 100 nM. Turning to `COc1ccc2nc(C(F)(F)F)nc(N3C[C@@H](O)[C@H](N4CCN(C(=O)c5ccc(Cl)cc5)CC4)C3)c2n1` (racemic) [Example 200, 4-[4-(4-chlorobenzoyl)piperazin-1-yl]-1-[6-methoxy-2-(trifluoromethyl)pyrido[3,2-d]pyrimidin-4-yl]pyrrolidin-3-ol], the IC50 was below 100 nM. Take `O[C@H]1CN(c2ncnc3cc(C(F)(F)F)ccc23)C[C@@H]1N1CCN(Cc2ccc(Cl)cc2)CC1` (stereo in doubt) [Example 97, 4-[4-(4-chlorobenzyl)piperazin-1-yl]-1-[7-(trifluoromethyl)quinazolin-4-yl]pyrrolidin-3-ol]: the IC50 was below 100 nM. Then `O=C(c1ccc(Cl)cc1)N1CCN([C@H]2CN(c3cccc(C(F)(F)F)n3)C[C@@H]2O)CC1` [Example 79], with below 100 nM.

In the case of `O=C(c1ccc(Cl)cc1)N1CCN([C@H]2CN(c3nccc(C(F)(F)F)n3)C[C@@H]2O)CC1` [Example 68, (3S,4S)-4-[4-(4-chlorobenzoyl)piperazin-1-yl]-1-[4-(trifluoromethyl)pyrimidin-2-yl]pyrrolidin-3-ol], the IC50 is below 100 nM. Next, `Cc1cc(C(F)(F)F)nc(N2C[C@@H](O)[C@H](N3CCN(Cc4ccc(Cl)cc4)CC3)C2)n1` (stereo in doubt) [Example 108, 4-[4-(4-chlorobenzyl)piperazin-1-yl]-1-[4-methyl-6-(trifluoromethyl)pyrimidin-2-yl]pyrrolidin-3-ol]: below 100 nM.

With `Cc1nc(C(F)(F)F)nc(N2C[C@H](O)[C@@H](N3CCN(C(=O)c4ccc(Cl)cc4)CC3)C2)c1C` [Example 157, (3S,4S)-4-[4-(4-chlorobenzoyl)piperazin-1-yl]-1-[5,6-dimethyl-2-(trifluoromethyl)pyrimidin-4-yl]pyrrolidin-3-ol], the IC50 was below 100 nM. Then `CC(C)(O)c1ccc2nc(C(F)(F)F)nc(N3C[C@@H](O)[C@H](N4CCN(C(=O)c5ccc(Cl)cc5)CC4)C3)c2c1` (stereo in doubt) [Example 199, 4-[4-(4-chlorobenzoyl)piperazin-1-yl]-1-[6-(1-hydroxy-1-methylethyl)-2-(trifluoromethyl)quinazolin-4-yl]pyrrolidin-3-ol], with below 100 nM.
